Data set [1] has as its target Platelet-derived growth factor receptor beta (Mus musculus, UniProt P05622). In words: Inhibitory activity against PDGFRbeta.
The target of data set [2] is Fibroblast growth factor receptor 1 (Homo sapiens, UniProt P11362). The data set is described as follows: Inhibitory activity against FGFR1.
The nature of data set [3]: Half life in mice at 20 mg/kg, po. The format is ADME, organism-based. Also noted: dose 20 mg/kg, route oral. The settings on record: mouse, in vivo.
The nature of data set [4]: Oral bioavailability in mice. It is filed as ADME, organism-based. The settings on record: mouse, in vivo.
Data set [5] in a line: Clearance in mice. The settings on record: mouse, in vivo. The format is ADME, organism-based.
The next data set relates to HMEC. The data set is described as follows: Activity against HMVEC. The format is functional, cell-based. To be noted: Homo sapiens.
Data set [6] in a line: Half life in mice at 5 mg/kg, iv. It is filed as ADME, organism-based. Also noted: dose 5 mg/kg, route intravenous. To be noted: mouse, in vivo.
Data set [7] addresses Vascular endothelial growth factor receptor 2 (Mus musculus, UniProt P35918). In words: Inhibitory activity against VEGFR2.
Data set [8] concerns the target Vascular endothelial growth factor receptor 1 (Homo sapiens, UniProt P17948).
Description: Inhibitory activity against VEGFR1

Chain of Vascular endothelial growth factor receptor 2 (P35918 whole entry): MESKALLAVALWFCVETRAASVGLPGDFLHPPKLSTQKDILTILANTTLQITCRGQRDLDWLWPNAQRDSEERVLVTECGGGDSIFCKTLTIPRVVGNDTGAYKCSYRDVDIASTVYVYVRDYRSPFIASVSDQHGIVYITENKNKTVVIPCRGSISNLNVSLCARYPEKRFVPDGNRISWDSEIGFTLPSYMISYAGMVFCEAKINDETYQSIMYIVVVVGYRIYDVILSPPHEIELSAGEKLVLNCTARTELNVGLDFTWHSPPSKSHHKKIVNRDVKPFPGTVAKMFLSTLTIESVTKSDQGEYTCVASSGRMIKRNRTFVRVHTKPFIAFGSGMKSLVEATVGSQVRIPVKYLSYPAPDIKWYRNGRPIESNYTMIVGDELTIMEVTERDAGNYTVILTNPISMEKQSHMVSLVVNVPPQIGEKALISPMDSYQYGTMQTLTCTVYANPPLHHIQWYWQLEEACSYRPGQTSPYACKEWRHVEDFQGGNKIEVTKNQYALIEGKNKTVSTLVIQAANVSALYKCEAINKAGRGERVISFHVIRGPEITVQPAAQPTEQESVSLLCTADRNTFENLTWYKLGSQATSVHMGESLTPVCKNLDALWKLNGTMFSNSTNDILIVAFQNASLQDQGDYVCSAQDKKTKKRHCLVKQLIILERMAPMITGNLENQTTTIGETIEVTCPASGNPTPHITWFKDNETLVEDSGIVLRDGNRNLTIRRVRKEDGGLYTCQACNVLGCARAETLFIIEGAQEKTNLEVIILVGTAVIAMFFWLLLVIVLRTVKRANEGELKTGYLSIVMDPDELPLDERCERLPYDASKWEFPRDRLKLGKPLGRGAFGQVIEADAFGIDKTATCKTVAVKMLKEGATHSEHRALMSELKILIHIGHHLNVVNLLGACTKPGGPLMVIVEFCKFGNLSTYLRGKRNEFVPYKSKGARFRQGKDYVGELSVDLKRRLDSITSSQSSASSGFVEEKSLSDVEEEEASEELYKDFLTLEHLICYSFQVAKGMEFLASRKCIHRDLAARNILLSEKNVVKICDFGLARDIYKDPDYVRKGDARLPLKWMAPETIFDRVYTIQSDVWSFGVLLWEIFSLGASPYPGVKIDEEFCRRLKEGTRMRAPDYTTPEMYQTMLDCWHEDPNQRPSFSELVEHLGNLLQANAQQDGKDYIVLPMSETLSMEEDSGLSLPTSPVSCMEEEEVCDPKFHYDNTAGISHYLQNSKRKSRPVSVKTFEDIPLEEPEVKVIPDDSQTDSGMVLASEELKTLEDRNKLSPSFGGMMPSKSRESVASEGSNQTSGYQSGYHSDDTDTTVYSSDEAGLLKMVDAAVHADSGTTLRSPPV
Chain of Platelet-derived growth factor receptor beta (P05622 whole entry): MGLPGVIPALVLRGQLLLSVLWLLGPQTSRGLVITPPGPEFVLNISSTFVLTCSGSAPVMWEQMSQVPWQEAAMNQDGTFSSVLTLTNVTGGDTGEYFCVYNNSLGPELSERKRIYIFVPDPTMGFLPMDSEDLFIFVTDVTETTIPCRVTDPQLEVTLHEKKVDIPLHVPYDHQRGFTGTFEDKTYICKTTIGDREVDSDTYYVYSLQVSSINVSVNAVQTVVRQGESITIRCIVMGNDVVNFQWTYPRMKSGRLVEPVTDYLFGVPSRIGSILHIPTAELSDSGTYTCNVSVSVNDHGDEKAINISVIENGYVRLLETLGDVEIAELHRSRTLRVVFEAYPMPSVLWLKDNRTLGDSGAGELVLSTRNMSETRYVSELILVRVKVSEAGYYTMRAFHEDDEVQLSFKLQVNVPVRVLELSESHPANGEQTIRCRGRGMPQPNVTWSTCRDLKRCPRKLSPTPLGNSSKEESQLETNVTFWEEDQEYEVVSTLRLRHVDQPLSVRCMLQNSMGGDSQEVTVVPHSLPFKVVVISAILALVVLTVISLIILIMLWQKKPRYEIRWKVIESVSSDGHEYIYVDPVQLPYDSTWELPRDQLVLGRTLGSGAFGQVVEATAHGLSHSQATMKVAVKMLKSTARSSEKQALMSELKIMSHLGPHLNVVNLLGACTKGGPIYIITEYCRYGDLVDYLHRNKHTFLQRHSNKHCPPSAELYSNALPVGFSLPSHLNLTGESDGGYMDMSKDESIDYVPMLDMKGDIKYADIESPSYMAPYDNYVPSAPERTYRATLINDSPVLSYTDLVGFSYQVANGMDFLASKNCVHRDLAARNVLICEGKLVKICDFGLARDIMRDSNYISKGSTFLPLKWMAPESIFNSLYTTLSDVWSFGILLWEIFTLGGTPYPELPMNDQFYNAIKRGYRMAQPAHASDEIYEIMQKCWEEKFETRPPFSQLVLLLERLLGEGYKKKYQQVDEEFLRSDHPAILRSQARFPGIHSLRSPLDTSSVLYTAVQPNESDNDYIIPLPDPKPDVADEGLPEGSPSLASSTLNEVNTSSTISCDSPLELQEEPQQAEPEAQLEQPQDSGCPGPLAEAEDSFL
Chain of Fibroblast growth factor receptor 1 (P11362 whole entry): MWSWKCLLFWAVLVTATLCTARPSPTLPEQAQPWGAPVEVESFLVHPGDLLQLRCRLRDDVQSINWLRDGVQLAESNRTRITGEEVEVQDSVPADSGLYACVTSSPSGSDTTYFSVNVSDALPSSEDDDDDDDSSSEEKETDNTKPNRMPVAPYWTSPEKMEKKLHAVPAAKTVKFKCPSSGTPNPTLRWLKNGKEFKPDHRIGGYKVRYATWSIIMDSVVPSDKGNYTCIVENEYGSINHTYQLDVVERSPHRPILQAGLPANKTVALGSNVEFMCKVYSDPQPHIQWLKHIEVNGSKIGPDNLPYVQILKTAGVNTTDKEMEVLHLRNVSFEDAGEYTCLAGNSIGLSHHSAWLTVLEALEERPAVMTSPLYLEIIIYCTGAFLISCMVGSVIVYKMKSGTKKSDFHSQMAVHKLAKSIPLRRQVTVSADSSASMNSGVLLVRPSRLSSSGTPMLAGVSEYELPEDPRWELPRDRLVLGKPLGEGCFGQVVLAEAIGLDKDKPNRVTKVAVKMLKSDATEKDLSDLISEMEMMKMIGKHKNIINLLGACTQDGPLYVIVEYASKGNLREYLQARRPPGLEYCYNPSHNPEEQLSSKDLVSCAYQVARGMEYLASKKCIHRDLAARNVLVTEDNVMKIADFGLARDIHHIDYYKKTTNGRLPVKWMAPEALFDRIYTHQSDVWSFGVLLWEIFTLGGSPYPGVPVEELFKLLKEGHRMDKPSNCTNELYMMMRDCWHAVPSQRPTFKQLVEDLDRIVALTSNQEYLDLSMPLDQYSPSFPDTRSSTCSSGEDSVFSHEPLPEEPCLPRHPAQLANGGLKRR
Chain of Vascular endothelial growth factor receptor 1 (P17948 whole entry): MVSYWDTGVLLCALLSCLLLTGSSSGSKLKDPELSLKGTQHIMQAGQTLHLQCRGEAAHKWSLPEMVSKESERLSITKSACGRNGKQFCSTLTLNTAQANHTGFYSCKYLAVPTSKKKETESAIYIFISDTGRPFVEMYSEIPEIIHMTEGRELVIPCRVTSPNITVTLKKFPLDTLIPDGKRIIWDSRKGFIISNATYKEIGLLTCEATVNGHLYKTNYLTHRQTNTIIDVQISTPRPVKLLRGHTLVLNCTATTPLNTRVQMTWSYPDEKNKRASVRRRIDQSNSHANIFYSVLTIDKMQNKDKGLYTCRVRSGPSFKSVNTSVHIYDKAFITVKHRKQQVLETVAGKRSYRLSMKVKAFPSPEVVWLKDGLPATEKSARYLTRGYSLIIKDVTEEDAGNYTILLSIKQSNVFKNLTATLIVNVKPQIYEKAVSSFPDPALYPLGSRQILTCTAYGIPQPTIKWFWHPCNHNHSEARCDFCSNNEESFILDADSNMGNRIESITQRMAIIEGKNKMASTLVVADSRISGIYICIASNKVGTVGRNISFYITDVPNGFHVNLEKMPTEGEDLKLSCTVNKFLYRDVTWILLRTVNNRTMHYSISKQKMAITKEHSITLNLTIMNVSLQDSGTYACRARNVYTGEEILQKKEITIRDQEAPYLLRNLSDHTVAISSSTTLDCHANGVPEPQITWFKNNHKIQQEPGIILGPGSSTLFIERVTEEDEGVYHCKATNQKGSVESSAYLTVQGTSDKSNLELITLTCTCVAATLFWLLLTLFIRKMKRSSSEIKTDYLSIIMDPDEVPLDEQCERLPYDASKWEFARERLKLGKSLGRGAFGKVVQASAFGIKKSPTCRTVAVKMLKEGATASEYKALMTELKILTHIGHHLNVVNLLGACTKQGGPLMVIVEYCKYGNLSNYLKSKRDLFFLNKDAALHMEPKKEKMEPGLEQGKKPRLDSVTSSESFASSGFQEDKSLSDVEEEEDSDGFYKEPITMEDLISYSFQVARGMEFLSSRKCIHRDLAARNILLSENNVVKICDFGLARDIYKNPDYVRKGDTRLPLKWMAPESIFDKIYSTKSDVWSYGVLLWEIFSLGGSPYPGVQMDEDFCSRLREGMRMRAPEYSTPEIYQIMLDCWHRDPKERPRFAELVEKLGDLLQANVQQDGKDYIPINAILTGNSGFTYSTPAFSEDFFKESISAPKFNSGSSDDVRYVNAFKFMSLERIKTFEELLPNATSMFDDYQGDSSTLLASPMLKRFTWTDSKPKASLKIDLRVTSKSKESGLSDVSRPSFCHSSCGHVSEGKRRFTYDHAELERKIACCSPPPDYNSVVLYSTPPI

The IC50 is the point on the concentration scale where inhibition reaches its midpoint. For orientation: half-life means how long it takes for the measured level to halve. Low readings indicate rapid decline, high ones slow decline. As usually defined, the bioavailability is the share of a dose that reaches the circulation, judged against a reference dose that is usually intravenous. Higher therefore signals good availability. For orientation: clearance means a measure of how efficiently the substance is removed, as volume per time. Low values mean inefficient removal, high ones efficient removal. One may read the EC50 as the concentration that produces a half-maximal response. Read a low EC50 as a more potent agent. For the compound `Nc1c(-c2nc3cc(N4CCOCC4)ccc3[nH]2)c(=O)[nH]c2ccccc12`, the values for the IC50 in [1], in [2] and in data set [7] were 0.038 µM, 0.021 µM and 0.004 µM, respectively. Further, the half-life in data set [3] came to 3.6 h; in [6], 1.18 h. In addition, the bioavailability in [4] was 100%. The compound further had a clearance in data set [5] of 0.78 L/h/kg. In the data set with HMEC, this compound had a half-maximal effective concentration (EC50) of 0.04 µM.

With `CN1CCN(c2ccc3[nH]c(-c4c(N)c5ccccc5[nH]c4=O)nc3c2)CC1`, the half-inhibitory concentration (IC50) in [1] is 0.027 µM; in data set [2], 0.008 µM; in data set [7] it was 0.013 µM. Also, the 50% effective concentration (EC50) with HMEC turned out to be 0.02 µM.

In the case of `CN1CCN(c2ccc3nc(-c4c(N)c5ccccc5[nH]c4=O)[nH]c3n2)CC1`, the IC50 in [1] turned out to be 0.03 µM; in data set [2], 0.01 µM; in [7], 0.024 µM. The compound also returned a concentration giving a half-maximal response (EC50) with HMEC of 0.051 µM.

Regarding `Nc1c(-c2nc3cccnc3[nH]2)c(=O)[nH]c2ccccc12`, the half-inhibitory concentration (IC50) in [1] was determined as 0.025 µM; in [2], 0.051 µM; in data set [7] it was 0.016 µM. In the data set with HMEC, this compound came in with an EC50 of 0.088 µM.

Turning to `Nc1c(-c2nc3cccnc3[nH]2)c(=O)[nH]c2cnccc12`, the IC50 is 0.049 µM in data set [1], 0.03 µM in [2] and 0.012 µM in data set [7]. Further, the EC50 in the data set on HMEC was found to be 0.077 µM.

On to `Nc1c(-c2nc3cc(N4CCOCC4)ccc3[nH]2)c(O)nc2cnccc12`, for which the IC50 in data set [1] worked out at 0.064 µM; in data set [2], 0.01 µM; in data set [7], 0.002 µM. For the same compound, the values for the half-life in data set [3] and in [6] were 1.3 h and 0.433 h, respectively. In addition, in data set [4], the bioavailability stood at 87%. The clearance in data set [5] was 1.44 L/h/kg. In the data set with HMEC, this compound showed a half-maximal effective concentration (EC50) of 0.084 µM.

In the case of `Nc1c2cnnc-2[nH]c(O)c1-c1nc2ccccc2[nH]1`, the values for the IC50 in data set [1], in data set [2] and in data set [7] were 0.326 µM, 3.17 µM and 0.507 µM, respectively. In the data set on HMEC, this compound had an EC50 of 3.82 µM.

Take `CN1CCN(c2ccc3[nH]c(-c4c(O)nc5cccnc5c4N)nc3c2)CC1`: the concentration for half-maximal inhibition (IC50) was determined as 0.055 µM in data set [1], 0.043 µM in data set [2] and 0.033 µM in data set [7]. For the same compound, the concentration for a half-maximal effect (EC50) in the data set on HMEC was found to be 0.089 µM.

Take `Nc1c(-c2nc3ccccc3[nH]2)c(O)nc2sccc12`: the IC50 in data set [1] is 0.691 µM; in data set [2] it was 0.348 µM; in data set [7], 0.109 µM. Besides, the 50% effective concentration (EC50) with HMEC worked out at 0.85 µM.

`CN1CCN(c2ccc3[nH]c(-c4c(O)nc5cnccc5c4N)nc3c2)CC1`: the concentration for half-maximal inhibition (IC50) turned out to be 0.043 µM in data set [1], 0.004 µM in data set [2] and 0.001 µM in [7]. Also, in the data set on HMEC, the midpoint of the response, the EC50, lay at 0.016 µM.

In the case of `Oc1nc2cnccc2c(O)c1-c1nc2ccccc2[nH]1`, the values for the IC50 in [1], in data set [2] and in [7] were 1.59 µM, 0.576 µM and 0.168 µM, respectively. A half-maximal response in the data set on HMEC (EC50) required 2.2 µM.

Consider `Oc1nc2ncccc2c(O)c1-c1nc2ccccc2[nH]1`, for which the IC50 in data set [1] came to 6.53 µM; in data set [2], 5 µM; in data set [7], 3 µM. In the data set with HMEC, this compound showed an EC50 of over 10 µM.

Regarding `O=c1[nH]c2ccccc2c(O)c1-c1nc2ccccc2[nH]1`, the IC50 worked out at 0.395 µM in data set [1], 0.215 µM in [2], 0.162 µM in [8] and 0.114 µM in data set [7]. Moreover, in the data set with HMEC, the response was half-maximal at 0.428 µM (EC50).

Turning to `Nc1c(-c2nc3ccc(N4CCOCC4)nc3[nH]2)c(=O)[nH]c2ccccc12`, the half-maximal inhibitory concentration (IC50) in data set [1] was found to be 0.048 µM; in data set [2], 0.047 µM; in [7] it was 0.008 µM. Also, the values for the half-life in [3] and in data set [6] were 0.95 h and 1.08 h, respectively. For the same compound, in data set [4], the bioavailability stood at 84%. In addition, the clearance in data set [5] came out at 3.66 L/h/kg. This compound had an EC50 in the data set on HMEC of 0.034 µM.

With `Nc1c(-c2nc3cc(N4CCOCC4)ccc3[nH]2)c(O)nc2ccncc12`, the IC50 in data set [1] came to 0.018 µM; in data set [2], 0.1 µM; in data set [7], 0.057 µM. Further, a half-maximal effect in the data set with HMEC (EC50) was put at 0.768 µM.

Consider `Cn1ncc2c(N)c(-c3nc4ccccc4[nH]3)c(O)nc21`, for which the IC50 was determined as 0.575 µM in data set [1], 3 µM in data set [2] and 3 µM in data set [7]. The EC50 in the data set with HMEC was determined as 0.321 µM.

As for `Nc1c2ncnc-2[nH]c(O)c1-c1nc2ccccc2[nH]1`, the concentration for half-maximal inhibition (IC50) in data set [1] stood at 0.154 µM; in data set [2] it was 2.66 µM; in data set [7], 0.552 µM. The concentration giving a half-maximal response (EC50) in the data set with HMEC was determined as 3.68 µM.

As for `Nc1c(-c2nc3ccccc3[nH]2)c(=O)[nH]c2ccccc12`, the half-inhibitory concentration (IC50) in [1] worked out at 0.102 µM; in data set [2], 0.044 µM; in data set [8], 0.028 µM; in data set [7], 0.025 µM.

In the case of `Nc1c(-c2nc3ccccc3[nH]2)c(O)nc2cnccc12`, the values for the half-maximal inhibitory concentration (IC50) in data set [1], in data set [2] and in data set [7] were 0.057 µM, 0.01 µM and 0.003 µM, respectively. The compound further had an EC50 in the data set on HMEC of 0.053 µM.

The values above are taken from ChEMBL document CHEMBL1146959, “Design and structure-activity relationship of heterocyclic analogs of 4-amino-3-benzimidazol-2-ylhydroquinolin-2-ones as inhibitors of receptor tyrosine kinases” (Bioorg Med Chem Lett, 2006).
